Test results published in ChEMBL document CHEMBL5528047, “A Potent SOS1 PROTAC Degrader with Synergistic Efficacy in Combination with KRASG12C Inhibitor” (J Med Chem, 2024).
Active and inactive are the calls of the source. No cut-off for these calls is given here.

How the values were obtained:
SW837 [1] = assay: (§1) Antiproliferative activity against human SW837 cells incubated for 6 days in presence of 1 uM (2S,4R)-1-((S)-2-(5-((4-(((R)-1-(3-amino-5-(trifluoromethyl)phenyl)ethyl)amino)-7-methoxy-2-methylquinazolin-6-yl)oxy)pentanamido)-3,3-dimethylbutanoyl)-4-hydroxy-N-(4-(4-methylthiazol-5-yl)benzyl)pyrrolidine-2-carboxamide by CCK8 assay; type: functional, cell-based; conditions: SW837, 144 h
NCI-H358 [2] = assay: Antiproliferative activity against human NCI-H358 cells incubated for 6 days by CCK8 assay; type: functional, cell-based; conditions: NCI-H358, 144 h
MIA PaCa-2 [3] = assay: as §1, with “human MIA PaCa-2” for “human SW837”, “of 10” for “of 1”; type: functional, cell-based; conditions: MIA PaCa-2, 144 h
MIA PaCa-2 [4] = assay: Inhibition of RAS pathway in SOS1 knockout human MIA PaCa-2 cells at 100 nM; type: cell-based
[5] = Stability in human NCI-H358 cells assessed as compound remaining at 0.2 mM after 72 hrs by HPLC analysis; type: ADME, cell-based; conditions: read-out: Stability
NCI-H358 [6] = assay: as §1, with “human NCI-H358” for “human SW837”, “of 10” for “of 1”; type: functional, cell-based; conditions: NCI-H358, 144 h
MIA PaCa-2 [7] = assay: as §1, with “MIA PaCa-2” for “SW837”; type: functional, cell-based; conditions: MIA PaCa-2, 144 h
MIA PaCa-2 [8] = assay: Inhibition of ERK phosphorylation in human MIA PaCa-2 cells at 100 nM after 24 to 72 hrs in presence of BI3406 by Western blotting analysis; type: cell-based; conditions: time 24-72 hrs
NCI-H358 [9] = assay: Upregulation of SOS1 protein in human NCI-H358 cells; type: functional, cell-based
SW837 [10] = assay: Antiproliferative activity against human SW837 cells incubated for 6 days by CCK8 assay; type: functional, cell-based; conditions: SW837, 144 h
NCI-H358 [11] = assay: Inhibition of ERK phosphorylation in human NCI-H358 cells at 300 nM after 24 hrs; type: cell-based
MIA PaCa-2 [12] = assay: Inhibition of ERK phosphorylation in human MIA PaCa-2 cells at 300 nM after 24 hrs; type: cell-based
NCI-H358 [13] = assay: as §1, with “NCI-H358” for “SW837”; type: functional, cell-based; conditions: NCI-H358, 144 h
SW837 [14] = assay: as §1, with “of 10” for “of 1”; type: functional, cell-based; conditions: SW837, 144 h
MIA PaCa-2 [15] = assay: Upregulation of SOS1 protein in human MIA PaCa-2 cells; type: functional, cell-based
NCI-H358 [16] = assay: Inhibition of RAS pathway in SOS1 knockout human NCI-H358 cells at 100 nM; type: cell-based
MIA PaCa-2 [17] = assay: Antiproliferative activity against human MIA PaCa-2 cells incubated for 6 days by CCK8 assay; type: functional, cell-based; conditions: MIA PaCa-2, 144 h
NCI-H358 [18] = assay: Antitumor activity against human NCI-H358 cells xenografted in BALB/c mouse assessed as tumor growth inhibition at 10 mg/kg, ip administered once daily for 28 days; type: functional; conditions: NCI-H358, 672 h, time 28 day, read-out: TGI
[19] = Stability in human MIA PaCa-2 cells assessed as compound remaining at 0.2 mM after 72 hrs by HPLC analysis; type: ADME, cell-based; conditions: read-out: Stability

C=CC(=O)N1CCN(c2nc(=O)n(-c3c(C)ccnc3C(C)C)c3nc(-c4c(O)cccc4F)c(F)cc23)[C@@H](C)C1 [SOTORASIB]
IC50 (SW837 [1]): 3 nM
IC50 (NCI-H358 [2]): 10 nM
IC50 (MIA PaCa-2 [3]): 6 nM
inhibition (MIA PaCa-2 [4]): Active
remaining at 72 h, 200 µM [5]: > 70%
IC50 (NCI-H358 [6]): 1 nM
IC50 (MIA PaCa-2 [7]): 13 nM
inhibition (MIA PaCa-2 [8]): Active
Activity (NCI-H358 [9]): Active
IC50 (SW837 [10]): 9 nM
inhibition (NCI-H358 [11]): Active
inhibition (MIA PaCa-2 [12]): Active
IC50 (NCI-H358 [13]): 4 nM
IC50 (SW837 [14]): 2 nM
Activity (MIA PaCa-2 [15]): Active
inhibition (NCI-H358 [16]): Active
IC50 (MIA PaCa-2 [17]): 37 nM
inhibition in vivo at 10 mg/kg (NCI-H358 [18]): 34.9%
remaining at 72 h, 200 µM [19]: > 70%
